Key:
[1] = target: Serotonin 2 (5-HT2) receptor (Rattus norvegicus, UniProt P30994+P08909+P14842); test: Binding affinity to 5-hydroxytryptamine 2 receptor using [3H]ketanserin radioligand assay.; format: protein assay
[2] = target: T1, 5-hydroxytryptamine receptor 1A (Rattus norvegicus, UniProt P19327); test: Binding affinity to 5-hydroxytryptamine 1A receptor using [3H]8-OH-DPAT radioligand assay.
T1 sequence (P19327 whole entry): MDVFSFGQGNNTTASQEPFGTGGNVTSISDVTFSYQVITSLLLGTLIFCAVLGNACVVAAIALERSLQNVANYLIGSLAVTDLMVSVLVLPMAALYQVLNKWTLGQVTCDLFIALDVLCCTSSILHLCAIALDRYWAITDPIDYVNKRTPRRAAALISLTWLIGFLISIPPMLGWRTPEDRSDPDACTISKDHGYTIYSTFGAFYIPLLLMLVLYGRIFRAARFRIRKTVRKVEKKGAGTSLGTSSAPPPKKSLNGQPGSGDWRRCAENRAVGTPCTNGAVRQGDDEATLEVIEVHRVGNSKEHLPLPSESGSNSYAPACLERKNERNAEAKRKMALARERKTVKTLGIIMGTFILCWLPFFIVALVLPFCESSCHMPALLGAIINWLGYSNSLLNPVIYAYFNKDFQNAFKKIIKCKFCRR

Structure (SMILES) | Ki [1] [nM] | Ki [2] [nM]
CCCN1CCC=C(c2c[nH]c3ccc(NC(C)=O)cc23)C1 | > 50000 | 205
COC(=O)c1ccc2[nH]cc(C3=CCCN(C)C3)c2c1 | 5360 | 102
CN1CCC=C(c2c[nH]c3ccc(O)cc23)C1 | 237 | 145
CN1CC[C@@H]2CCc3[nH]c4ccccc4c3[C@H]2C1 | 325 | 2360
COc1ccc2[nH]cc(C3=CCCNC3)c2c1 | 230 | 5.7
CCCN1CCC=C(c2c[nH]c3ccc(C(=O)OC)cc23)C1 | > 50000 | 214
CN1CCC=C(c2c[nH]c3ccc(C#N)cc23)C1 | 1035 | 129
CCCN1CCC=C(c2c[nH]c3ccc(OC)cc23)C1 | 1070 | 226
CCCN1CCC=C(c2c[nH]c3ccccc23)C1 | 146 | 556
COc1ccc2[nH]cc(C3=CCCN(C)C3)c2c1 | 716 | 79
CN1CCC=C(c2c[nH]c3ccccc23)C1 | 139 | 261
CCN1CCC=C(c2c[nH]c3ccc(OC)cc23)C1 | 1130 | 71
CC(=O)Nc1ccc2[nH]cc(C3=CCCN(C)C3)c2c1 | 14536 | 16
CC(=O)c1ccc2[nH]cc(C3=CCCN(C)C3)c2c1 | 3383 | 91
CCN1CCC=C(c2c[nH]c3ccc(C#N)cc23)C1 | 1360 | 186
CCN1CCC=C(c2c[nH]c3ccc(F)cc23)C1 | 67 | 142
CCN1CCC=C(c2c[nH]c3ccccc23)C1 | 165 | 213
CCCN1CCC=C(c2c[nH]c3ccc(C#N)cc23)C1 | 958 | 303
CCN1CCC=C(c2c[nH]c3ccc(C)cc23)C1 | 246 | 42
Cc1ccc2[nH]cc(C3=CCCN(C)C3)c2c1 | 194 | 72
CCCN1CCC=C(c2c[nH]c3ccc(C(N)=O)cc23)C1 | 19152 | 4.7
CCN1CCC=C(c2c[nH]c3ccc(Br)cc23)C1 | 125 | 24
CN1CCC=C(c2c[nH]c3ccc(C(N)=O)cc23)C1 | > 10000 | 3.8
CCCN1CCC=C(c2c[nH]c3ccc(Br)cc23)C1 | 139 | 192
CCN1CCC=C(c2c[nH]c3ccc(Cl)cc23)C1 | 150 | 47
CN1CCC=C(c2c[nH]c3ccc(Cl)cc23)C1 | 107 | 113
CN1CCC=C(c2c[nH]c3ccc(Br)cc23)C1 | 82 | 50
CN1CCC=C(c2c[nH]c3ccc(F)cc23)C1 | 43 | 124

Reference: ChEMBL document CHEMBL1128098, “Synthesis and serotonin receptor binding properties of 5-substituted 3-(1,2,5,6-tetrahydropyridin-3-yl) indoles” (Bioorg Med Chem Lett, 1995)
